Reference: US8791267B2, “Biaryl PDE4 inhibitors for treating inflammatory, cardiovascular and CNS disorders” (Decode Genetics EHF, priority 2007, dated 2014)
Structures can show the parent of a compound that is named as a salt. Where two headings read alike, the source gives them in different places.

Key:
PDE4B = PDE4B (Homo sapiens, UniProt Q07343); assay: In-vitro assay for PDE4 enzymes, real-time enzyme-coupled spectrophotometric assay, PDE4B Activity (Table 10); assay type: biochemical
PDE4 = PDE4 (Homo sapiens, UniProt Q08499); assay: In-vitro assay for PDE4 enzymes, real-time enzyme-coupled spectrophotometric assay (Table 9); assay type: biochemical
Sequence of PDE4 (Q08499 whole entry): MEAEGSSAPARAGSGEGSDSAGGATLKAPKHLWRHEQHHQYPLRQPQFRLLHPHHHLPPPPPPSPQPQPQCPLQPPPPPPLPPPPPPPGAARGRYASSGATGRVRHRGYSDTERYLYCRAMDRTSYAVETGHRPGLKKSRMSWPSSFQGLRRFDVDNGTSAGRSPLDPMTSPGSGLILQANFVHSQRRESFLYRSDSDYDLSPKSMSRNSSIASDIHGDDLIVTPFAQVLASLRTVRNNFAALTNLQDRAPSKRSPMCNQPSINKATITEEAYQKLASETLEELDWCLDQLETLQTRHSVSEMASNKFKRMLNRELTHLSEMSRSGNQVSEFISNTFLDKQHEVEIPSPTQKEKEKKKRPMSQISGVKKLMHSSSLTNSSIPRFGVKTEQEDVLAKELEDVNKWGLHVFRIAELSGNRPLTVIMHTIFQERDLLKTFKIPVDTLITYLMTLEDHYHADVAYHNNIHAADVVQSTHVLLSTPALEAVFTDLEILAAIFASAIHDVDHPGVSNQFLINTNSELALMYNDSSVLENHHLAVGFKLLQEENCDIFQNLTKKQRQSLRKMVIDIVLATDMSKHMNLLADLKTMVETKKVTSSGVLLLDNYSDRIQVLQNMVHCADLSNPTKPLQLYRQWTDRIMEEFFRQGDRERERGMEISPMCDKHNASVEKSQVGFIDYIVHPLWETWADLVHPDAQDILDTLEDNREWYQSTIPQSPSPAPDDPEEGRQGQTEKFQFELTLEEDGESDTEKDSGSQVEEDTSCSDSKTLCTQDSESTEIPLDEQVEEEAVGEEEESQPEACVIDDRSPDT

[1] = human PDE4B (hPDE4B), enzyme-coupled spectrophotometric assay, read-out: PDE4B Activity, hPDE4B
[2] = human PDE4D, activity class, Table 9, read-out: hPDE4D

Sequence of PDE4B (Q07343 whole entry): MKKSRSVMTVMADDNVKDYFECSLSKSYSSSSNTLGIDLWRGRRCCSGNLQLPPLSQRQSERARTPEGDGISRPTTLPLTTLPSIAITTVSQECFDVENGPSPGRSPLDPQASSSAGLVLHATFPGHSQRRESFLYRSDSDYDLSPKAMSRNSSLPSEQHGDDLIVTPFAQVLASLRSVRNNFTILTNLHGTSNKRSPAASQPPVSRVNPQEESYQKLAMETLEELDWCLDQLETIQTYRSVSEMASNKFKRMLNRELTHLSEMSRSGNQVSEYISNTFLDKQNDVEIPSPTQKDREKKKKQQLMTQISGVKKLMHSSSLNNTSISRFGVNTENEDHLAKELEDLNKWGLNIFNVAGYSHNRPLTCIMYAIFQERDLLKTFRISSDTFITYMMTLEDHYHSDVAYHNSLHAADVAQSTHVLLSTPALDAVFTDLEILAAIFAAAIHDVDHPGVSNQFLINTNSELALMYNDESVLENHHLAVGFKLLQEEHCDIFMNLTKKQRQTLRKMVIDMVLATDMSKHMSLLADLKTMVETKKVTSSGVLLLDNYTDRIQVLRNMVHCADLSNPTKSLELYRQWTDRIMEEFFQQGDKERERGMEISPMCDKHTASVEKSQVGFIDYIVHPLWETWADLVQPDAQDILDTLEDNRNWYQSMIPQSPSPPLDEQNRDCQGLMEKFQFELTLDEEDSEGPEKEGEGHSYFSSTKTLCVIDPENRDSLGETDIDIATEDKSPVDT

Row | SMILES | IC50 (PDE4B; [1]) [µM] | IC50 (PDE4; [2]) [µM] | IC50 (PDE4B) [µM] | IC50 (PDE4) [µM]
1 | COc1ccc(Cc2ccc(NS(C)(=O)=O)cc2)c(F)c1-c1cccc(C(C)=O)c1 [P-249] | < 5 | < 5 |  | 
2 | COc1ccc(Cc2cnc(N)nc2)c(F)c1-c1cccc(Cl)c1 [P-278] | < 5 | < 5 |  | 
3 | COc1ccc(Cc2ccc(NC(N)=O)cc2)c(F)c1-c1cccc(C(C)=O)c1 [P-269, [4-(3′-Acetyl-2-fluoro-6-methoxy-biphenyl-3-ylmethyl)-phenyl]urea] | < 5 | < 5 |  | 
4 | COc1ccc(Cc2cnc(N3CC(O)C3)nc2)c(F)c1-c1cccc(Cl)c1 [P-393, 1-[5-(3′-Chloro-2-fluoro-6-methoxy-biphenyl-3-ylmethyl)-pyrimidin-2-yl]-azetidin-3-ol] | < 5 | < 5 |  | 
5 | NC(=O)Nc1ccc(Cc2ccc(O)c(-c3cccc([N+](=O)[O-])c3)c2F)cc1 [P-508] | 5 to 20 | < 5 |  | 
6 | COc1ccc(Cc2ccc(NC(=O)OC(C)(C)C)cc2)cc1-c1cccc([N+](=O)[O-])c1 [P-112] | < 5 | < 5 |  | 
7 | Cn1nccc1Cc1ccc(OC(F)F)c(-c2ccc3c(c2)OCO3)c1 [P-201, 5-(3-Benzo[1,3]dioxol-5-yl-4-difluoromethoxy-benzyl)-1-methyl-1H-pyrazole] | 21 to 40 | 5 to 20 |  | 
8 | COc1ccc(Cc2ccc(NCCO)nc2)c(F)c1-c1cccc(Cl)c1 [P-411] | < 5 | < 5 |  | 
9 | COc1ccc(Cc2ccc(NS(C)(=O)=O)nc2)c(F)c1-c1cccc(Cl)c1 [P-258, N-[5-(3′-chloro-2-fluoro-6-methoxy-biphenyl-3-ylmethyl)-pyridin-2-yl]-methanesulfonamide] | < 5 | < 5 |  | 
10 | COc1ccc(CN2CCN(C(N)=O)CC2)c(F)c1-c1cccc(Cl)c1 [P-370] | 5 to 20 | < 5 |  | 
11 | NCCOc1ccc(Cc2ccc(NC(N)=O)cc2)cc1-c1cccc(Cl)c1 [P-542, {4-[6-(2-Amino-ethoxy)-3′-chloro-biphenyl-3-ylmethyl]-phenyl}-urea] | 21 to 40 | 20 to 40 |  | 
12 | Nc1ccc(Cc2ccc(OC3COC3)c(-c3cccc(Cl)c3)c2)cc1 [P-562, 4-[3′-Chloro-6-(oxetan-3-yloxy)-biphenyl-3-ylmethyl]-phenylamine] | < 5 | < 5 |  | 
13 | NC(=O)Nc1ccc(Cc2ccc(O)c(-c3cccc(Cl)c3)c2)cc1 [P-421, [4-(3′-Chloro-6-hydroxy-biphenyl-3-ylmethyl)-phenyl]-urea] | < 5 | < 5 |  | 
14 | COc1ccc(Cc2ccc(C=O)cc2)c(O)c1-c1cccc([N+](=O)[O-])c1 [P-180, 4-(2-Hydroxy-6-methoxy-3′-nitro-biphenyl-3-ylmethyl)-benzaldehyde] | < 5 | < 5 |  | 
15 | O=[N+]([O-])c1cccc(-c2cc(Cc3ccc(F)cc3)ccc2O)c1 [P-494, 5-(4-Fluoro-benzyl)-3′-nitro-biphenyl-2-ol] | < 5 | < 5 |  | 
16 | COc1ccc(Cc2ccc(NC(=O)CN(C)C)cc2)c(F)c1-c1cccc([N+](=O)[O-])c1 [P-147] | < 5 | < 5 |  | 
17 | COc1ccc(Cn2cncn2)cc1-c1cccc(F)c1 [P-058, 1-(3′-Fluoro-6-methoxy-biphenyl-3-ylmethyl)-1H-[1,2,4]triazole] | 5 to 20 | < 5 |  | 
18 | COc1ccc(Cc2ccc(C#N)nc2)c(F)c1-c1cccc(Cl)c1 [P-355] | < 5 | < 5 |  | 
19 | COc1ccc(Cn2ccc(CN)cc2=O)cc1-c1cccc([N+](=O)[O-])c1 [P-213, 4-Aminomethyl-1-(6-methoxy-3′-nitro-biphenyl-3-ylmethyl)-1H-pyridin-2-one] | < 5 | 5 to 20 |  | 
20 | COc1ccc(Cc2cccc(N)c2)cc1-c1cccc(Cl)c1 [P-255, 3-(3′-Chloro-6-methoxy-biphenyl-3-ylmethyl)-phenylamine] | < 5 | < 5 |  | 
21 | COc1ccc(COc2ccc(N)cc2)c(F)c1-c1cccc(Cl)c1 [P-576] | < 5 | < 5 |  | 
22 | COc1ccc(Cc2cccc(O)c2)cc1-c1cccc([N+](=O)[O-])c1 [P-102, 3-(6-Methoxy-3′-nitro-biphenyl-3-ylmethyl)-phenol] | < 5 | < 5 |  | 
23 | COc1cc(F)c(C(O)c2ccc(F)cc2)cc1-c1cccc([N+](=O)[O-])c1 (centres unmarked) [P-093, (4-Fluoro-6-methoxy-3′-nitro-biphenyl-3-yl)-(4-fluoro-phenyl)-methanol] | 5 to 20 | < 5 |  | 
24 | COc1ccc(Cn2cncc2CO)cc1-c1cccc([N+](=O)[O-])c1 [P-153, [3-(6-Methoxy-3′-nitro-biphenyl-3-ylmethyl)-3H-imidazol-4-yl]-methanol] | 5 to 20 | < 5 |  | 
25 | COc1ccc(COc2ccnc(Cl)c2)c(F)c1-c1cccc(Cl)c1 [P-604] | < 5 | < 5 |  | 

Row | SMILES | IC50 (PDE4B; [1]) [µM] | IC50 (PDE4; [2]) [µM] | IC50 (PDE4B) [µM] | IC50 (PDE4) [µM]
26 | COc1ccc(COc2ccc(NC(C)=O)cc2)c(F)c1-c1cccc(Cl)c1 [P-594] | < 5 | < 5 |  | 
27 | COc1ccc(Cc2ccc(Br)nc2)c(F)c1-c1cccc(Cl)c1 [P-402, 2-Bromo-5-(3′-chloro-2-fluoro-6-methoxy-biphenyl-3-ylmethyl)-pyridine] | < 5 | < 5 |  | 
28 | CCOC(=O)Nc1ccc(Cc2ccc(OC)c(-c3cccc(C#N)c3)c2F)cn1 [P-398, [5-(3′-Cyano-2-fluoro-6-methoxy-biphenyl-3-ylmethyl)-pyridin-2-yl]-carbamic acid ethyl ester] | < 5 | < 5 |  | 
29 | CCOC(=O)Cn1nc(C)c(Cc2ccc(OC)c(-c3cccc([N+](=O)[O-])c3)c2)c1C [P-087, [4-(6-Methoxy-3′-nitro-biphenyl-3-ylmethyl)-3,5-dimethyl-pyrazol-1-yl]-acetic acid ethyl ester] | < 5 | < 5 |  | 
30 | COc1ccc(Cc2ccc(CN)nc2)c(F)c1-c1cccc(Cl)c1 [P-344, C-[5-(3′-Chloro-2-fluoro-6-methoxy-biphenyl-3-ylmethyl)-pyridin-2-yl]-methylamine] | < 5 | < 5 |  | 
31 | COc1ccc(C(=O)c2ccc(F)cc2)c(F)c1-c1cccc([N+](=O)[O-])c1 [P-049] | < 5 | < 5 |  | 
32 | COc1ccc(CN2C(=O)CCCC2=O)cc1-c1cccc([N+](=O)[O-])c1 [P-040, 1-(6-Methoxy-3′-nitro-biphenyl-3-ylmethyl)-piperidine-2,6-dione] | 5 to 20 | 5 to 20 |  | 
33 | CCNc1ccc(Cc2ccc(OC)c(-c3cccc(C(C)=O)c3)c2F)cn1 [P-339] | < 5 | < 5 |  | 
34 | CCOC(=O)NCc1ccc(Cc2ccc(OC)c(-c3cccc(Cl)c3)c2F)cn1 [P-367, [5-(3′-Chloro-2-fluoro-6-methoxy-biphenyl-3-ylmethyl)-pyridin-2-ylmethyl]-carbamic acid ethyl ester] | < 5 | < 5 |  | 
35 | COc1ccc(Cn2cc(C(N)=O)ccc2=O)cc1-c1cccc([N+](=O)[O-])c1 [P-212, 1-(6-Methoxy-3′-nitro-biphenyl-3-ylmethyl)-6-oxo-1,6-dihydro-pyridine-3-carboxylic acid amide] | 5 to 20 | 5 to 20 |  | 
36 | COc1ccc(Cc2ccc(OC)c(-c3cccc([N+](=O)[O-])c3)c2O)cn1 [P-125] | < 5 | < 5 |  | 
37 | COc1ccc(Cc2ccc(F)cc2)cc1-c1cccc([N+](=O)[O-])c1 [P-001, 5-(4-Fluoro-benzyl)-2-methoxy-3′-nitro-biphenyl] | < 5 | < 5 |  | 
38 | COc1ccc(Cc2cccc(O)c2)c(F)c1-c1cccc(Cl)c1 [P-217] | < 5 | < 5 |  | 
39 | CCNC(=O)OCc1ccc(Cc2ccc(OC)c(-c3cccc(Cl)c3)c2)cn1 [P-570, Ethyl-carbamic acid 5-(3′-chloro-6-methoxy-biphenyl-3-ylmethyl)-pyridin-2-ylmethyl ester hydrochloride] | < 5 | < 5 |  | 
40 | COc1ccc(COC2=CC(=O)CC2)cc1-c1cccc([N+](=O)[O-])c1 [P-092, 3-(6-Methoxy-3′-nitro-biphenyl-3-ylmethoxy)-cyclopent-2-enone] | < 5 | < 5 |  | 
41 | COc1ccc(Nc2ccc(NS(C)(=O)=O)cc2)cc1-c1cccc(C(C)=O)c1 [P-267, N-[4-(3′-Acetyl-6-methoxy-biphenyl-3-ylamino)-phenyl]-methanesulfonamide] | < 5 | < 5 |  | 
42 | COc1ccc(Cc2ccc(C(N)=O)nc2)c(F)c1-c1cccc(Cl)c1 [P-401, 5-(3′-Chloro-2-fluoro-6-methoxy-biphenyl-3-ylmethyl)-pyridine-2-carboxylic acid amide] | < 5 | < 5 |  | 
43 | COc1ccc(Cc2cccc(CN)c2)cc1-c1cccc([N+](=O)[O-])c1 [P-161, 3-(6-Methoxy-3′-nitro-biphenyl-3-ylmethyl)-benzylamine] | 5 to 20 | 5 to 20 |  | 
44 | COc1ccc(Cn2cncn2)cc1-c1cccc(C(C)=O)c1 [P-082, 1-(2′-Methoxy-5′-[1,2,4]triazol-1-ylmethyl-biphenyl-3-yl)-ethanone] | 5 to 20 | < 5 |  | 
45 | COc1ccc(Cc2ccc(N)cn2)c(F)c1-c1cccc(Cl)c1 [P-478] | < 5 | < 5 |  | 
46 | COc1ccc(Cc2ccc(NC(C)=O)cc2)c(F)c1-c1cccc([N+](=O)[O-])c1 [P-107] | < 5 | < 5 |  | 
47 | COc1ccc(Cc2ccc(OC(N)=O)cc2)c(F)c1-c1cccc(Cl)c1 [P-221] |  |  | < 5 | < 5
48 | COc1ccc(Cc2ccc(-n3ccnc3)nc2)c(F)c1-c1cccc(Cl)c1 [P-573, 5-(3′-chloro-2-fluoro-6-methoxy-biphenyl-3-ylmethyl)-2-imidazol-1-yl-pyridine] | < 5 | < 5 |  | 
49 | COc1ccc(Cn2cc(-c3ccccn3)cn2)c(F)c1-c1cccc(Cl)c1 [P-527, 2-[1-(3′-Chloro-2-fluoro-6-methoxy-biphenyl-3-ylmethyl)-1H-pyrazol-4-yl]-pyridine] | 5 to 20 | < 5 |  | 
